Tested on: NSC
Experiment: Neurogenic activity in human NSC assessed as increase in cells measured as ATP level after 4 days by Cell titre glo assay
Type: functional

Compound | EC150 [µM]
COc1cccc(C2CCN(c3ccc(-c4cn[nH]c4)cc3)C2=O)c1 (stereo not drawn) | 0.0405
COc1cc(N2CCC(c3cccc(F)c3)C2=O)ccc1-c1cn[nH]c1 (stereo not drawn) | 0.0776
CCC1(c2ccccc2)CCN(c2ccc(-c3cnco3)c(OC)c2)C1=O (stereo not drawn) | 3.2257
COc1cc(N2CCC(c3ccccc3Cl)C2=O)ccc1-c1cnco1 (stereo not drawn) | 0.6783
COc1cc(N2CCN(Cc3ccncc3)C2=O)ccc1-c1cn[nH]c1 | 0.042
CCOc1cc(N2CCN(Cc3cccc(OC)c3)C2=O)ccc1-c1cn[nH]c1 | 0.8349
COc1cccc(CN2CCN(c3ccc(-c4cn[nH]c4)c(F)c3)C2=O)c1 | 0.0157
COc1cc(N2CCCN(Cc3ccccc3Cl)C2=O)ccc1-c1cn[nH]c1 | 1.9918
O=C1C(c2cccc(Cl)c2)CCN1c1ccc(-c2cn[nH]c2)cc1 (stereo not drawn) | 0.2304
O=C1C(c2ccc(Cl)cc2)CCN1c1ccc(-c2cn[nH]c2)cc1 (stereo not drawn) | 0.384
COc1cc(N2CCN(Cc3cccc(OC(F)(F)F)c3)C2=O)ccc1-c1cn[nH]c1 | 0.0092
COc1cc(N2CCN(Cc3cccc(C(F)(F)F)c3)C2=O)ccc1-c1cn[nH]c1 | 0.0086
CCOc1cc(N2CCN(CCc3ccccc3Cl)C2=O)ccc1-c1cn[nH]c1 | 0.1358
CCOc1cc(N2CCN(CCc3ccccc3OC)C2=O)ccc1-c1cn[nH]c1 | 1.9784
COc1cccc(CC2CCN(c3ccc(-c4cn[nH]c4)c(OC)c3)C2=O)c1 (stereo not drawn) | 0.0239
CCOc1cccc(CN2CCN(c3ccc(-c4cn[nH]c4)c(OC)c3)C2=O)c1 | 0.0739
COc1cc(N2CCC(c3ccccc3)C2=O)ccc1-c1cnco1 (stereo not drawn) | 0.4712
O=C1C(c2ccc(F)cc2)CCN1c1ccc(-c2cn[nH]c2)cc1 (stereo not drawn) | 0.0417

From ChEMBL document CHEMBL3774371, “Pyrrolidinones as Modulators of Neurogenesis” (2016)
